≈ marks a conversion by molar mass, not a printed value.
Tests used:
[1] = Cytotoxicity against human MCF7/ADR cells; type: functional; settings: NCI/ADR-RES, read-out: ED50 (the source's name)
[2] = Cytotoxicity against human MCF7/ADR cells assessed as ratio of drug concentration to drug ED100 at 1.0 ug/ml after 6 days by BCA assay; type: functional, NCI/ADR-RES
[3] = Cytotoxicity against human MCF7/ADR cells assessed as ratio of drug concentration to drug ED100 at 0.8 ug/ml after 6 days by BCA assay; type: functional, NCI/ADR-RES
[4] = Cytotoxicity against human MCF7/ADR cells assessed as ratio of drug concentration to drug ED100 at 0.6 ug/ml after 6 days by BCA assay; type: functional, NCI/ADR-RES
[5] = Cytotoxicity against human MCF7/ADR cells assessed as ratio of drug concentration to drug ED100 at 0.3 ug/ml after 6 days by BCA assay; type: functional, NCI/ADR-RES
[6] = Cytotoxicity against human MCF7/ADR cells assessed as ratio of drug concentration to drug ED100 at 0.15 ug/ml after 6 days by BCA assay; type: functional, NCI/ADR-RES
MCF/ADR [7] = assay: Reversal of P-gp-mediated multidrug resistance in human MCF/ADR cells assessed as ratio of doxorubicin ED50 without drug to doxorubicin ED50 with drug at 1.0 ug/ml after 6 days by BCA assay; type: cell-based
MCF/ADR [8] = assay: Reversal of P-gp-mediated multidrug resistance in human MCF/ADR cells assessed as ratio of doxorubicin ED50 without drug to doxorubicin ED50 with drug at 0.8 ug/ml after 6 days by BCA assay; type: cell-based
MCF/ADR [9] = assay: Reversal of P-gp-mediated multidrug resistance in human MCF/ADR cells assessed as ratio of doxorubicin ED50 without drug to doxorubicin ED50 with drug at 0.6 ug/ml after 6 days by BCA assay; type: cell-based
MCF/ADR [10] = assay: Reversal of P-gp-mediated multidrug resistance in human MCF/ADR cells assessed as ratio of doxorubicin ED50 without drug to doxorubicin ED50 with drug at 0.3 ug/ml after 6 days by BCA assay; type: cell-based
MCF/ADR [11] = assay: Reversal of P-gp-mediated multidrug resistance in human MCF/ADR cells assessed as ratio of doxorubicin ED50 without drug to doxorubicin ED50 with drug at 1.15 ug/ml after 6 days by BCA assay; type: cell-based
[12] = Cytotoxicity against human MCF7/ADR cells assessed as ratio of drug concentration to drug ED100 at 10 ug/ml after 6 days by BCA assay; type: functional, NCI/ADR-RES
[13] = Cytotoxicity against human MCF7/ADR cells assessed as ratio of drug concentration to drug ED100 at 8 ug/ml after 6 days by BCA assay; type: functional, NCI/ADR-RES
[14] = Cytotoxicity against human MCF7/ADR cells assessed as ratio of drug concentration to drug ED100 at 6 ug/ml after 6 days by BCA assay; type: functional, NCI/ADR-RES
[15] = Cytotoxicity against human MCF7/ADR cells assessed as ratio of drug concentration to drug ED100 at 3 ug/ml after 6 days by BCA assay; type: functional, NCI/ADR-RES
[16] = Cytotoxicity against human MCF7/ADR cells assessed as ratio of drug concentration to drug ED100 at 1.5 ug/ml after 6 days by BCA assay; type: functional, NCI/ADR-RES

Row | SMILES | EC50 [1] | Activity [2] | Activity [3] | Activity [4] | Activity [5] | Activity [6] | Ratio ED50 (MCF/ADR [7]) | Ratio ED50 (MCF/ADR [8]) | Ratio ED50 (MCF/ADR [9]) | Ratio ED50 (MCF/ADR [10]) | Ratio ED50 (MCF/ADR [11]) | Activity (MCF/ADR [7]) | Activity (MCF/ADR [8]) | Activity (MCF/ADR [9]) | Activity (MCF/ADR [10]) | Activity [12] | Activity [13] | Activity [14] | Activity [15] | Activity [16]
1 | COc1ccc2cc1Oc1ccc(cc1)C[C@H]1c3c(cc(OC)c4c3Oc3cc5c(cc3O4)CCN(C)[C@H]5C2)CCN1C [ISOTRILOBINE] | 2 µg/mL (≈ 3.47 µM) | 0.2 | 0.16 | 0.12 | 0.06 | 0.03 | 70 | 57 | 32 | 10 | 5 |  |  |  |  |  |  |  |  | 
2 | COc1ccc2cc1Oc1ccc(cc1)C[C@@H]1NCCc3cc(OC)c4c(c31)Oc1cc3c(cc1O4)CCN(C)[C@H]3C2 [TRILOBINE] | 1 µg/mL (≈ 1.78 µM) | 0.17 | 0.13 | 0.1 | 0.05 |  |  |  |  |  |  | 2 | 2 | 1.5 | 1 |  |  |  |  | 
3 | COc1ccc(CCN(C)CCCC(C#N)(c2ccc(OC)c(OC)c2)C(C)C)cc1OC (stereo not given) [VERAPAMIL] |  |  |  |  |  |  |  |  |  |  |  |  |  |  |  | 0.19 | 0.15 | 0.12 | 0.06 | 0.03
